Measurements reported in patent publication US12076694B2, “Method of removing protein-bound substances by electrically conductive polymer” (Ming Chi University of Technology, priority 2019, dated 2024).

Experiments:
[1] = target: BSA (Bos taurus, UniProt P02769); assay: Protein binding ratio by centrifugal ultrafiltration (30-kDa cutoff); conditions: 50 ppm toxin, BSA 4-40 g L^−1 in PBS buffer
[2] = comparison value for the anticoagulant; cited from earlier work

BSA, sequence (P02769 25-607): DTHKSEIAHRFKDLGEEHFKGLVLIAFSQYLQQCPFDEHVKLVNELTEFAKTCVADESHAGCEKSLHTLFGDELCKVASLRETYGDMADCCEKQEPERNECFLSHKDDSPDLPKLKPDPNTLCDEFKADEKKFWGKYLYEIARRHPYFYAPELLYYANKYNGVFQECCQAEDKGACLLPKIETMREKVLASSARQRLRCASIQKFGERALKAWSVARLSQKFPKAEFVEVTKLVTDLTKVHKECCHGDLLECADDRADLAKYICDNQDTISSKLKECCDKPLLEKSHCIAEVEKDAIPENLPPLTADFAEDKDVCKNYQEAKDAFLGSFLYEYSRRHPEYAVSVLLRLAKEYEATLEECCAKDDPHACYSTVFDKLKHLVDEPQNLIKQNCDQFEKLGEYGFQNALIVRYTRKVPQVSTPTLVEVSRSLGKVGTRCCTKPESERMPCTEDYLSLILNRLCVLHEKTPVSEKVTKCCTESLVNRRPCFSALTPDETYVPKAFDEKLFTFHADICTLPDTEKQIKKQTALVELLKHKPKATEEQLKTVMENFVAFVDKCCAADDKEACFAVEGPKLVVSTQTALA

Molecule	estimated protein-binding ratio [1]	zeta potential [2]
CN1CC(=O)NC1=N [CRT, creatinine]	1.0-2.1%	
O=C(O)CNC(=O)c1ccccc1 [HA, hippuric acid]	18.3-36.9%	
Cc1ccc(O)cc1 [PC, p-cresol]	89.4-94.4%	
heparin		−39 mV
